Reference: PubChem BioAssay AID1918993 (Molecular Pharmacology Branch, DTP, NCI, 2023)
“And” between values parts separate entries of the source, which are not always exact repeats. Equal values may be shown once. One block for each molecule: values may come before it.

Test system: 233499-124-R-J3-PDC complex spheroid growth
Assay: Anticancer human tumor 233499-124-R-J3-PDC patient-derived colon adenocarcinoma cell line growth inhibition [AhR]
Conditions: for viability, T/C: stronger effect = lower value
Procedure, shortened: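 Spheroids combined tumor cells with HUVEC endothelial cells and human MSCs as stroma. AhR antagonists were paired with standard or investigational drugs, each dosed in half-log steps down from near clinical Cmax, or from 10 microM where Cmax was unknown.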

[1] = curve of first compound, second compound 0.1 µM
[2] = curve of first compound, second compound 0.316 µM
[3] = curve of first compound, second compound 1 µM
[4] = curve of first compound, second compound 3.16 µM
[5] = curve of first compound, second compound 10 µM
[6] = second compound 0.1 µM, first compound 0.0316 µM
[7] = second compound 0.1 µM, first compound 0.1 µM
[8] = second compound 0.1 µM, first compound 0.316 µM
[9] = second compound 0.1 µM, first compound 1 µM
[10] = second compound 0.1 µM, first compound 3.16 µM
[11] = second compound 0.1 µM, first compound 10 µM
[12] = second compound 0.316 µM, first compound 0.0316 µM
[13] = second compound 0.316 µM, first compound 0.1 µM
[14] = second compound 0.316 µM, first compound 0.316 µM
[15] = second compound 0.316 µM, first compound 1 µM
[16] = second compound 0.316 µM, first compound 3.16 µM
[17] = second compound 0.316 µM, first compound 10 µM
[18] = second compound 1 µM, first compound 0.0316 µM
[19] = second compound 1 µM, first compound 0.1 µM
[20] = second compound 1 µM, first compound 0.316 µM
[21] = second compound 1 µM, first compound 1 µM
[22] = second compound 1 µM, first compound 3.16 µM
[23] = second compound 1 µM, first compound 10 µM
[24] = second compound 3.16 µM, first compound 0.0316 µM
[25] = second compound 3.16 µM, first compound 0.1 µM
[26] = second compound 3.16 µM, first compound 0.316 µM
[27] = second compound 3.16 µM, first compound 1 µM
[28] = second compound 3.16 µM, first compound 3.16 µM
[29] = second compound 3.16 µM, first compound 10 µM
[30] = second compound 10 µM, first compound 0.0316 µM
[31] = second compound 10 µM, first compound 0.1 µM
[32] = second compound 10 µM, first compound 0.316 µM
[33] = second compound 10 µM, first compound 1 µM
[34] = second compound 10 µM, first compound 3.16 µM
[35] = second compound 10 µM, first compound 10 µM
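Further: spheroids exposed to agents for seven days before reading.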

SMILES: CC1(C)CCC(CN2CCN(c3ccc(C(=O)NS(=O)(=O)c4ccc(NCC5CCOCC5)c([N+](=O)[O-])c4)c(Oc4cnc5[nH]ccc5c4)c3)CC2)=C(c2ccc(Cl)cc2)C1 + CC(CO)NC(=O)c1cc(-c2ccc(Cl)cc2)nn(-c2cnn(C)c2)c1=O
IC50 [1]: 6820 nM | IC50 [2]: 7050 nM | IC50 [3]: 6780 nM | IC50 [4]: 6620 nM | IC50 [5]: 6500 nM | viability, T/C [6]: 99.8% | viability, T/C [7]: 89.7% | viability, T/C [8]: 97.5% | viability, T/C [9]: 102% | viability, T/C [10]: 108% | viability, T/C [11]: 25.3% | viability, T/C [12]: 94.5% | viability, T/C [13]: 91.2% | viability, T/C [14]: 91.1% | viability, T/C [15]: 90.7% | viability, T/C [16]: 109% | viability, T/C [17]: 30.4% | viability, T/C [18]: 97.4% | viability, T/C [19]: 96.5% | viability, T/C [20]: 90.7% | viability, T/C [21]: 104% | viability, T/C [22]: 103% | viability, T/C [23]: 25.5% | viability, T/C [24]: 97.5% | viability, T/C [25]: 92.1% | viability, T/C [26]: 94.5% | viability, T/C [27]: 106% | viability, T/C [28]: 96.8% | viability, T/C [29]: 23.8% | viability, T/C [30]: 79.2% | viability, T/C [31]: 89.5% | viability, T/C [32]: 86.8% | viability, T/C [33]: 90.9% | viability, T/C [34]: 92.9% | viability, T/C [35]: 27.4%

SMILES: O=C(C=Cc1cccc(S(=O)(=O)Nc2ccccc2)c1)NO
viability, T/C (compound 0.0316 µM): 98.2% and 96.2% and 89.6% | viability, T/C (compound 0.1 µM): 112% and 105% and 102% | viability, T/C (compound 0.316 µM): 97.2% and 109% and 111% | viability, T/C (compound 1 µM): 115% (2×) and 109% | viability, T/C (compound 3.16 µM): 95.7% and 101% and 82.7% | viability, T/C (compound 10 µM): 19.4% and 12.2% and 13.2% | IC50 (curve of compound): 6320 nM and 6140 nM and 5430 nM

SMILES: Nc1ccccc1NC(=O)c1ccc(CNC(=O)OCc2cccnc2)cc1 + CC(CO)NC(=O)c1cc(-c2ccc(Cl)cc2)nn(-c2cnn(C)c2)c1=O
IC50 [1]: 2280 nM | IC50 [2]: 2240 nM | IC50 [3]: 3930 nM | IC50 [4]: 1940 nM | IC50 [5]: 1320 nM | viability, T/C [6]: 97.6% | viability, T/C [7]: 92.2% | viability, T/C [8]: 87.1% | viability, T/C [9]: 91% | viability, T/C [10]: 33.8% | viability, T/C [11]: 3.08% | viability, T/C [12]: 102% | viability, T/C [13]: 91.4% | viability, T/C [14]: 99% | viability, T/C [15]: 78.2% | viability, T/C [16]: 37.9% | viability, T/C [17]: 5% | viability, T/C [18]: 88.8% | viability, T/C [19]: 96.7% | viability, T/C [20]: 105% | viability, T/C [21]: 96% | viability, T/C [22]: 60.7% | viability, T/C [23]: 3.71% | viability, T/C [24]: 91.9% | viability, T/C [25]: 105% | viability, T/C [26]: 101% | viability, T/C [27]: 90.8% | viability, T/C [28]: 19.7% | viability, T/C [29]: 1.49% | viability, T/C [30]: 97.1% | viability, T/C [31]: 82.9% | viability, T/C [32]: 87.9% | viability, T/C [33]: 62% | viability, T/C [34]: 11.8% | viability, T/C [35]: 0.6%

SMILES: CC(C)CC(NC(=O)C(Cc1ccccc1)NC(=O)c1cnccn1)B(O)O (configuration not stated)
viability, T/C (compound 0.000949 µM): 104% and 97.6% and 89.6% | viability, T/C (compound 0.003 µM): 113% and 111% and 104% | viability, T/C (compound 0.00949 µM): 87.6% and 93.6% and 59.1% | viability, T/C (compound 0.03 µM): 3.07% and 10.3% and 0.16% | viability, T/C (compound 0.0949 µM): 0.13% and 0.15% and 0.11% | viability, T/C (compound 0.3 µM): 0.19% and 0.2% and 0.18% | IC50 (curve of compound): 15.8 nM and 17.3 nM and 11.3 nM

Now from value to molecule, other results behind:

IC50 [1]: > 300 nM | IC50 [2]: > 300 nM | IC50 [3]: > 300 nM | IC50 [4]: > 300 nM | IC50 [5]: < 0.949 nM
SMILES: Nc1ncn(C2CC(O)C(CO)S2)c(=O)n1 (configuration not stated) + Cc1cncc(-c2nc(NCCc3c[nH]c4ccccc34)c3ncn(C(C)C)c3n2)c1
viability, T/C (second compound 0.1 µM, first compound 0.000949 µM): 89.6% | viability, T/C (second compound 0.1 µM, first compound 0.003 µM): 96.5% | viability, T/C (second compound 0.1 µM, first compound 0.00949 µM): 89.8% | viability, T/C (second compound 0.1 µM, first compound 0.03 µM): 93.9% | viability, T/C (second compound 0.1 µM, first compound 0.0949 µM): 103% | viability, T/C (second compound 0.1 µM, first compound 0.3 µM): 103% | viability, T/C (second compound 0.316 µM, first compound 0.000949 µM): 72.9% | viability, T/C (second compound 0.316 µM, first compound 0.003 µM): 83% | viability, T/C (second compound 0.316 µM, first compound 0.00949 µM): 86.9% | viability, T/C (second compound 0.316 µM, first compound 0.03 µM): 89.6% | viability, T/C (second compound 0.316 µM, first compound 0.0949 µM): 96.9% | viability, T/C (second compound 0.316 µM, first compound 0.3 µM): 97.1% | viability, T/C (second compound 1 µM, first compound 0.000949 µM): 77.3% | viability, T/C (second compound 1 µM, first compound 0.003 µM): 66.2% | viability, T/C (second compound 1 µM, first compound 0.00949 µM): 84.6% | viability, T/C (second compound 1 µM, first compound 0.03 µM): 85.6% | viability, T/C (second compound 1 µM, first compound 0.0949 µM): 89.1% | viability, T/C (second compound 1 µM, first compound 0.3 µM): 83.4% | viability, T/C (second compound 3.16 µM, first compound 0.000949 µM): 101% | viability, T/C (second compound 3.16 µM, first compound 0.003 µM): 94.3% | viability, T/C (second compound 3.16 µM, first compound 0.00949 µM): 97.1% | viability, T/C (second compound 3.16 µM, first compound 0.03 µM): 103% | viability, T/C (second compound 3.16 µM, first compound 0.0949 µM): 104% | viability, T/C (second compound 3.16 µM, first compound 0.3 µM): 99.4% | viability, T/C (second compound 10 µM, first compound 0.000949 µM): 8.85% | viability, T/C (second compound 10 µM, first compound 0.003 µM): 8.14% | viability, T/C (second compound 10 µM, first compound 0.00949 µM): 14.4% | viability, T/C (second compound 10 µM, first compound 0.03 µM): 16.2% | viability, T/C (second compound 10 µM, first compound 0.0949 µM): 20.1% | viability, T/C (second compound 10 µM, first compound 0.3 µM): 26.1%

IC50 [1]: 622 nM | IC50 [2]: 523 nM | IC50 [3]: 515 nM | IC50 [4]: 203 nM | IC50 [5]: < 31.6 nM
SMILES: NS(=O)(=O)OCC1CC(n2ccc3c(NC4CCc5ccccc54)ncnc32)CC1O (configuration not stated) + Cc1cncc(-c2nc(NCCc3c[nH]c4ccccc34)c3ncn(C(C)C)c3n2)c1
viability, T/C [6]: 98.7% | viability, T/C [7]: 107% | viability, T/C [8]: 98.2% | viability, T/C [9]: 16.1% | viability, T/C [10]: 3.52% | viability, T/C [11]: 1.45% | viability, T/C [12]: 103% | viability, T/C [13]: 101% | viability, T/C [14]: 81.4% | viability, T/C [15]: 9.63% | viability, T/C [16]: 2.6% | viability, T/C [17]: 2.07% | viability, T/C [18]: 102% | viability, T/C [19]: 79.7% | viability, T/C [20]: 83.1% | viability, T/C [21]: 4.87% | viability, T/C [22]: 3.05% | viability, T/C [23]: 5.22% | viability, T/C [24]: 93.6% | viability, T/C [25]: 74.9% | viability, T/C [26]: 35.1% | viability, T/C [27]: 3.64% | viability, T/C [28]: 2.03% | viability, T/C [29]: 1% | viability, T/C [30]: 20.5% | viability, T/C [31]: 17.1% | viability, T/C [32]: 23.3% | viability, T/C [33]: 1.9% | viability, T/C [34]: 1.17% | viability, T/C [35]: 0.46%

IC50 (compound alone, run of 07/12/2022): > 10000 nM
SMILES: CC(CO)NC(=O)c1cc(-c2ccc(Cl)cc2)nn(-c2cnn(C)c2)c1=O (configuration not stated)
viability, T/C (compound 0.316 µM): 94.2% [middle of 21 runs] | viability, T/C (compound 3.16 µM): 91.3% [middle of 19 runs]

IC50 [1]: > 10000 nM | IC50 [2]: > 10000 nM | IC50 [3]: > 10000 nM | IC50 [4]: > 10000 nM | IC50 [5]: < 31.6 nM
SMILES: COc1cc(C2c3cc4c(cc3C(OC3OC5COC(C)OC5C(O)C3O)C3COC(=O)C23)OCO4)cc(OC)c1O (configuration not stated) + Cc1cncc(-c2nc(NCCc3c[nH]c4ccccc34)c3ncn(C(C)C)c3n2)c1
viability, T/C [6]: 92.6% | viability, T/C [7]: 101% | viability, T/C [8]: 109% | viability, T/C [9]: 95.4% | viability, T/C [10]: 98.6% | viability, T/C [11]: 92.9% | viability, T/C [12]: 91.7% | viability, T/C [13]: 89.8% | viability, T/C [14]: 86% | viability, T/C [15]: 81.6% | viability, T/C [16]: 83.9% | viability, T/C [17]: 88.5% | viability, T/C [18]: 77.5% | viability, T/C [19]: 84.4% | viability, T/C [20]: 77.3% | viability, T/C [21]: 88% | viability, T/C [22]: 79.8% | viability, T/C [23]: 69.9% | viability, T/C [24]: 78.9% | viability, T/C [25]: 79.5% | viability, T/C [26]: 77.4% | viability, T/C [27]: 73% | viability, T/C [28]: 74.1% | viability, T/C [29]: 55.9% | viability, T/C [30]: 9.81% | viability, T/C [31]: 11.9% | viability, T/C [32]: 30.9% | viability, T/C [33]: 30.1% | viability, T/C [34]: 22.2% | viability, T/C [35]: 9.08%
